Measured values as given in the NIST ThermoML archive (doi:10.1021/je050196o).

Assays:
[1] = 101 kPa, Liquid; for viscosity: Capillary tube (Ostwald / Ubbelohde) method; for mass density: Pycnometric method
[2] = xn = mol fraction of the nth substance listed; settings: 101 kPa, Liquid; for viscosity: Capillary tube (Ostwald / Ubbelohde) method; for mass density: Pycnometric method

COCC(C)OC(C)=O (configuration not stated) [1-methoxy-2-propyl acetate]
[1]
Settings | mass density [kg/m3] | viscosity [mPa·s]
298.15 K | 961.4 | 1.071
308.15 K | 951.4 | 0.904
318.15 K | 940.7 | 0.777

COCC(C)OC(C)=O (configuration not stated) [1-methoxy-2-propyl acetate] + C=C(C)C(=O)O
[2], x1 = 1
Settings | mass density [kg/m3] | viscosity [mPa·s]
298.15 K | 961.4 | 1.071
308.15 K | 951.4 | 0.904
318.15 K | 940.7 | 0.777

COCC(C)OC(C)=O (configuration not stated) [1-methoxy-2-propyl acetate] + C=C(C)C(=O)OCCO
[2], x1 = 1
Settings | mass density [kg/m3] | viscosity [mPa·s]
298.15 K | 961.4 | 1.071
308.15 K | 951.4 | 0.904
318.15 K | 940.7 | 0.777

COCC(C)OC(C)=O (configuration not stated) [1-methoxy-2-propyl acetate] + C=C(C)C(=O)OCc1ccccc1
[2], x1 = 1
Settings | mass density [kg/m3] | viscosity [mPa·s]
298.15 K | 961.4 | 1.071
308.15 K | 951.4 | 0.904
318.15 K | 940.7 | 0.777

C=C(C)C(=O)OCCO [2-hydroxyethyl 2-methyl-2-propenoate]
[1]
Settings | mass density [kg/m3] | viscosity [mPa·s]
298.15 K | 1067.1 | 5.784
308.15 K | 1057.7 | 4.194
318.15 K | 1048.6 | 3.181

C=C(C)C(=O)OCCO [2-hydroxyethyl 2-methyl-2-propenoate] + COCC(C)OC(C)=O
[2]
Settings | mass density, 298.15 K [kg/m3] | mass density, 308.15 K [kg/m3] | mass density, 318.15 K [kg/m3] | viscosity, 298.15 K [mPa·s] | viscosity, 308.15 K [mPa·s] | viscosity, 318.15 K [mPa·s]
x2 = 0 | 1067.1 | 1057.7 | 1048.6 | 5.784 | 4.194 | 3.181
x2 = 0.1 | 1056.4 | 1046.7 | 1037.3 | 4.764 | 3.519 | 2.71
x2 = 0.2 | 1045.7 | 1035.9 | 1026.1 | 3.84 | 2.9 | 2.273
x2 = 0.3 | 1034.9 | 1025 | 1015.1 | 3.222 | 2.477 | 1.969
x2 = 0.4 | 1024.1 | 1014.2 | 1004.1 | 2.719 | 2.123 | 1.709
x2 = 0.5 | 1013.5 | 1003.5 | 993.3 | 2.257 | 1.79 | 1.461
x2 = 0.6 | 1003 | 993 | 982.6 | 1.922 | 1.55 | 1.284
x2 = 0.7 | 992.6 | 982.5 | 972 | 1.651 | 1.341 | 1.117
x2 = 0.8 | 982.2 | 971.9 | 961.3 | 1.389 | 1.147 | 0.969
x2 = 0.8999 | 971.8 | 961.5 | 950.8 | 1.234 | 1.052 | 0.889

C=C(C)C(=O)O [2-methyl-2-propenoic acid]
[1]
Settings | mass density [kg/m3] | viscosity [mPa·s]
298.15 K | 1009.5 | 1.267
308.15 K | 999.4 | 1.078
318.15 K | 989.2 | 0.945

C=C(C)C(=O)O [2-methyl-2-propenoic acid] + COCC(C)OC(C)=O
[2]
Settings | mass density, 298.15 K [kg/m3] | mass density, 308.15 K [kg/m3] | mass density, 318.15 K [kg/m3] | viscosity, 298.15 K [mPa·s] | viscosity, 308.15 K [mPa·s] | viscosity, 318.15 K [mPa·s]
x2 = 0 | 1009.5 | 999.4 | 989.2 | 1.267 | 1.078 | 0.945
x2 = 0.1 | 1004 | 994.1 | 983.9 | 1.423 | 1.202 | 1.033
x2 = 0.2 | 999 | 989.3 | 979.4 | 1.506 | 1.301 | 1.105
x2 = 0.3 | 993.9 | 984.1 | 973.9 | 1.56 | 1.345 | 1.124
x2 = 0.3999 | 989.1 | 979.2 | 968.9 | 1.585 | 1.348 | 1.125
x2 = 0.5 | 984.8 | 975 | 964.8 | 1.569 | 1.31 | 1.1
x2 = 0.6 | 980.1 | 970.3 | 959.9 | 1.499 | 1.24 | 1.049
x2 = 0.7 | 975.8 | 966 | 955.5 | 1.411 | 1.168 | 0.988
x2 = 0.7999 | 970.8 | 960.9 | 950.5 | 1.301 | 1.081 | 0.929
x2 = 0.9 | 965.8 | 956 | 945.6 | 1.175 | 0.985 | 0.844

C=C(C)C(=O)OCc1ccccc1 [benzyl methacrylate]
[1]
Settings | mass density [kg/m3] | viscosity [mPa·s]
298.15 K | 1034.7 | 2.302
308.15 K | 1025.8 | 1.885
318.15 K | 1017 | 1.58

C=C(C)C(=O)OCc1ccccc1 [benzyl methacrylate] + COCC(C)OC(C)=O
[2]
Settings | mass density, 298.15 K [kg/m3] | mass density, 308.15 K [kg/m3] | mass density, 318.15 K [kg/m3] | viscosity, 298.15 K [mPa·s] | viscosity, 308.15 K [mPa·s] | viscosity, 318.15 K [mPa·s]
x2 = 0 | 1034.7 | 1025.8 | 1017 | 2.302 | 1.885 | 1.58
x2 = 0.1 | 1029 | 1019.9 | 1010.9 | 2.245 | 1.84 | 1.544
x2 = 0.2 | 1023.1 | 1013.8 | 1004.6 | 2.123 | 1.743 | 1.465
x2 = 0.3 | 1017 | 1007.6 | 998.2 | 1.991 | 1.638 | 1.377
x2 = 0.4 | 1010.6 | 1001.1 | 991.5 | 1.857 | 1.53 | 1.289
x2 = 0.4999 | 1003.8 | 994.2 | 984.4 | 1.694 | 1.399 | 1.183
x2 = 0.6 | 996.6 | 986.9 | 976.9 | 1.559 | 1.286 | 1.086
x2 = 0.7 | 989 | 979.2 | 969 | 1.434 | 1.189 | 1.007
x2 = 0.8 | 980.7 | 970.7 | 960.3 | 1.327 | 1.105 | 0.937
x2 = 0.9 | 971.9 | 961.8 | 951.2 | 1.232 | 1.028 | 0.874
